Data as given in US20080050444A1, “Pharmaceutical compositions of ilaparazole” (priority 2005, published 2008).

Tests used:
[1] = Particle size distribution of ilaprazole lots (Sympatec HELOS, low-angle laser light scattering); format: physicochemical; details: nitrogen pressure 2 bar
Protocol: The two lots of ilaprazole active ingredient were analyzed using a Sympatec HELOS particle size system with a RODOS dry powder disperser. This instrument operates using low-angle laser light scattering analyzed by Fraunhofer diffraction theory. Aliquots of approximately 0.5 g were fed into the instrument from a vibrating tray into a jet of nitrogen gas. After flowing through an interaction tube, an aerosol was formed in the path of a laser beam. The angle and intensity of diffracted light was then measured to determine the particle size distribution. As part of the method development, the particle size distribution was measured as a function of nitrogen gas pressure, and a pressure of 2 bar was determined to adequately break apart loosely adhered particles without significant milling of the sample. The results are shown below in Table 1 and in FIG. 1. The particle sizes are listed as x10, x50 and x90, the diameter where 10%, 50% and 90% of the volume of the material is in a particle smaller than the listed size.

[2] = acid or neutral conditions; known in the art; cited from earlier work

Row | x10 Mean ([1]; diameter where 10% of the volume of the material is in a particle smaller than the listed size) | x50 Mean ([1]; diameter where 50% of the volume of the material is in a particle smaller than the listed size) | x90 Mean ([1]; diameter where 90% of the volume of the material is in a particle smaller than the listed size) | SMILES | stability [2]
1 | 1.01 μm | 3.74 μm | 14.79 μm | COc1ccnc(C[S+]([O-])c2nc3cc(-n4cccc4)ccc3[nH]2)c1C (stereo not shown) [Lot A, ilaprazole] | –
2 | – | – | – | COc1ccnc(C[S+]([O-])c2nc3cc(-n4cccc4)ccc3[nH]2)c1C (stereo not shown) [ilaprazole, 2-[[(4-methoxy-3-methyl)-2-pyridyl]methylsufinyl]-5-(1H-pyrrol-1-yl)benzimidazole] | unstable under acid or neutral conditions
